Laboratory results taken from ChEMBL document CHEMBL1152934, “Quinazolindione derivatives as potent 5-HT3A receptor antagonists” (Bioorg Med Chem, 2009).

Biological target: 5-hydroxytryptamine receptor 3A (Mus musculus) (UniProt P23979)
Assay: Antagonist activity at 5HT3A receptor expressed in Xenopus oocyte

Chain of 5-hydroxytryptamine receptor 3A (Mus musculus) (P23979 whole entry, looked up): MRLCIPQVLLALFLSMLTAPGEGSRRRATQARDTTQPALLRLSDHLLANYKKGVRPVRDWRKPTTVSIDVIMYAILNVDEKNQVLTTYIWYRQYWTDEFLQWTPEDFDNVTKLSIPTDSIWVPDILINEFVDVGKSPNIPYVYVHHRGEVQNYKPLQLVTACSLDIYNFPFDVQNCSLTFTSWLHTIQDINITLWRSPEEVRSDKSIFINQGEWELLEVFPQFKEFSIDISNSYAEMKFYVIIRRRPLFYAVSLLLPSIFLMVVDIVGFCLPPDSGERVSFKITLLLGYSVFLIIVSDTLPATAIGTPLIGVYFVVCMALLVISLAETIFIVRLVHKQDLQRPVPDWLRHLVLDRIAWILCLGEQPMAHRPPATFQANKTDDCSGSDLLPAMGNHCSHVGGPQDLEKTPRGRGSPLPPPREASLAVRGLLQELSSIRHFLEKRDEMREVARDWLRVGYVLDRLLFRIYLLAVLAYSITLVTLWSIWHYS

| Compound | IC50 [µM] |
| --- | --- |
| O=C(NCCN1CCCCC1)c1ccc2c(=O)n(Cc3ccccc3Cl)c(=O)[nH]c2c1 | 2.1 |
| O=C(NCCN1CCOCC1)c1ccc2c(=O)n(Cc3ccc(F)cc3)c(=O)[nH]c2c1 | 19.8 |
| CC1CCCCN1CCCNC(=O)c1ccc2c(=O)n(Cc3ccc(Cl)cc3)c(=O)[nH]c2c1 (configuration not stated) | 11.6 |
| CC1CCCCN1CCCNC(=O)c1ccc2c(=O)n(C3CCCCC3)c(=O)[nH]c2c1 (configuration not stated) | 5.9 |
| O=C(NCCN1CCOCC1)c1ccc2c(=O)n(Cc3ccc(Cl)cc3)c(=O)[nH]c2c1 | 15.8 |
| CCC1CCCCN1CCNC(=O)c1ccc2c(=O)n(Cc3ccc(Cl)cc3)c(=O)[nH]c2c1 (configuration not stated) | 13.6 |
| O=C(NCCN1CCOCC1)c1ccc2c(=O)n(-c3ccc(F)cc3)c(=O)[nH]c2c1 | 57 |
